“Also recorded” adds a separate entry of the source. Read-outs that look alike come from different tables or passages of the source. Square brackets hold non-standard residues; d marks the D form. Peptide text beside a SMILES is read from it. * marks the point of attachment. Sta = CC(C)C[C@H](N)[C@@H](O)CC(=O)O; Isovaleryl = CC(C)CC(=O)*; Cbz = O=C(OCc1ccccc1)*
How the values were obtained:
Type in all cases: cell-based, mouse (C57BL/6)
[1] = tested on: EtxB-mediated epitope delivery in JAWSII cells
[2] = tested on: JAWSII cells
[3] = tested on: EtxB-mediated epitope delivery in JAWSII cells; remark: listed apart in the source
[4] = tested on: JAWSII dendritic cells
[5] = tested on: MHC-I/SIINFEKL complex on JAWSII cells

In the case of Brefeldin A [BFA], the “effect on direct loading and presentation of free 8mer peptide” value (shortened to “effect … of free 8mer peptide”) [1] is reported as “did not inhibit”, the “effect on epitope delivery by EtxB-9mer, -16mer, -19mer, -26mer and -26mer* conjugates” value (shortened to “effect on epitope delivery by EtxB-9mer”) [1] is reported as “complete inhibition” and the “effect on epitope presentation by EtxB-31mer” value (shortened to “effect … by EtxB-31mer”) [1] is reported as “prevented”. For the same compound, the “effect on MHC-I/SIINFEKL complexes in cells treated with EtxB-19mer or EtxB-31mer” value [2] was “no detectable MHC-I/SIINFEKL complexes were observed”, the “effect on epitope delivery by EtxB-9mer” value [3] was “complete inhibition” and the “effect … by EtxB-31mer” value [3] was “prevented”.

Bafilomycin A1 [BafA1] was tested, and the “effect on EtxB-mediated epitope presentation (conjugate not specified)” value (“effect … (conjugate not specified)” for short) [1] was “inhibited”, the “effect … of free 8mer peptide” value [1] was “did not inhibit” and the “effect on epitope delivery by EtxB-9mer” value [1] was “complete inhibition”. The “effect … by EtxB-31mer” value [1] was “prevented”, the “effect on MHC-I/SIINFEKL complexes in cells treated with EtxB-19mer or EtxB-31mer” value [2] was “no detectable MHC-I/SIINFEKL complexes were observed” and the “effect on epitope delivery by EtxB-9mer” value [3] was “complete inhibition”. For the same compound, the “effect … by EtxB-31mer” value [3] was “prevented”.

CAVGAGATAEESIINFEKL [19mer] was tested, and the “extent of class I epitope presentation (IL-2 release)” value (“extent … (IL-2 release)” for short) [4] was “virtually no presentation occurred”.

`CC[C@H](C)[C@H](NC(=O)[C@H]([C@@H](C)CC)N(C)C(C)=O)C(=O)N[C@H](C(=O)N[C@@H](CC(C)C)C(=O)[C@@]1(C)CO1)[C@@H](C)O` [epoxomicin] was tested, and the “effect … of free 8mer peptide” value [1] was “no inhibition of epitope presentation was observed”, the “effect on epitope presentation by EtxB-19mer” value (“effect … by EtxB-19mer” below) [1] was “no inhibition of epitope presentation was observed” and the “effect … by EtxB-31mer” value [1] was “completely blocked”. For the same compound, the “effect on MHC-I/SIINFEKL staining in cells treated with EtxB-19mer” value [2] was “normal co-localisation of WGA and MHC-I/SIINFEKL complexes was observed”, the “effect on MHC-I/SIINFEKL staining in cells treated with EtxB-31mer” value [2] was “no staining with MHC-I/SIINFEKL-specific antibodies was obtained” and the “effect … by EtxB-19mer” value [3] was “no inhibition of epitope presentation was observed”. For the same compound, the “effect … by EtxB-31mer” value [3] was “completely blocked”.

`CC(C)C[C@@H](C=O)NC(=O)[C@H](CC(C)C)NC(=O)[C@H](CC(C)C)NC(=O)OCc1ccccc1` [MG132] (Cbz-Leu-Leu-Leu-aldehyde) was tested, and the “effect … of free 8mer peptide” value [1] was “failed to prevent”, the “effect … by EtxB-19mer” value [1] was “failed to prevent” and the “effect … by EtxB-31mer” value [1] was “completely blocked”.

`CC(C)CC(=O)N[C@H](C(=O)N[C@H](C(=O)N[C@@H](CC(C)C)[C@@H](O)CC(=O)N[C@@H](C)C(=O)N[C@@H](CC(C)C)[C@@H](O)CC(=O)O)C(C)C)C(C)C` [pepstatin] (Isovaleryl-VV[Sta]A[Sta]-OH) was tested, and the “effect on extent of EtxB-mediated presentation of the 26mer peptide” value [1] was “no effect”.

In the case of `CC[C@@]1([C@@H]2O[C@@H]([C@H]3O[C@@](O)(CO)[C@H](C)C[C@@H]3C)C[C@@H]2C)CC[C@H]([C@]2(C)CC[C@]3(C[C@H](O)[C@@H](C)[C@@H]([C@@H](C)[C@@H](OC)[C@H](C)C(=O)O)O3)O2)O1` [monensin], the “effect … (conjugate not specified)” value [1] is reported as “prevented; also recorded: inhibited” and the “effect … of free 8mer peptide” value [1] is reported as “unaffected”.

With `CC(=O)N[C@@H](CC(C)C)C(=O)N[C@@H](CC(C)C)C(=O)N[C@H](C=O)CCCNC(=N)N` [leupeptin] the “effect … (conjugate not specified)” value [1] was “no significant effects”.

`c1cnc2c(c1)ccc1cccnc12` [1,10-phenanthroline] was tested, and the “effect … (conjugate not specified)” value [1] was “found to inhibit”.

In the case of SIINFEKL [8mer], the “MHC-I/SIINFEKL complexes (shift in fluorescence)” value [5] is reported as “clear and similar shift in fluorescence”, the “extent … (IL-2 release)” value [4] is reported as “significantly stimulated class I presentation” and the “kinetics of class I peptide presentation (in words)” value [4] is reported as “peptide presentation at the earliest time point tested”.

`CC(C)C[C@H](NC(=O)[C@@H](O)[C@H](N)Cc1ccccc1)C(=O)O` [bestatin] was tested, and the “effect … (conjugate not specified)” value [1] was “no significant effects”.

`CC(=O)N[C@@H](CSC(=O)[C@]1([C@@H](O)C(C)C)NC(=O)[C@H](C)[C@@H]1O)C(=O)O` [lactacystin] was tested, and the “effect … of free 8mer peptide” value [1] was “failed to prevent”, the “effect … by EtxB-19mer” value [1] was “failed to prevent” and the “effect … by EtxB-31mer” value [1] was “completely blocked”.

CSIINFEKL [9mer] was tested, and the “extent … (IL-2 release)” value [4] was “significantly stimulated class I presentation”.
